Laboratory results: patent publication US20080113908A1, “Use of CRF receptor agonists for the treatment or Prophylaxis of diseases, for example Neurodegenerative diseases” (SmithKline Beecham plc, priority 2000, published 2008)

Columns and labels:
[1] = system: cerebellar granule neurones; experiment: Assay 3: intracellular cyclic AMP enzyme immunoassay; format: cell-based, rat; conditions: agonist 0 to 30 nM, 15 min, 0.5 mM IBMX
Description: Assay 3: The production of cAMP by the CRF receptor agonist peptides CRF, urotensin 1, urocortin and sauvagine was measured as follows. This assay can be used analogously for any putative CRF receptor agonists including non-peptide agonists.
Intracellular cyclic AMP was measured with a cAMP 2-site enzyme immunoassay system (trade mark BIOTRAK, commercially available from Amersham Pharmacia Biotech, PO Box 164, Rainham, Essex RM13 8JZ, United Kingdom, Amersham catalogue number RPN225), based upon the use of a sensitive and highly specific capture antibody for cyclic AMP:
Cerebellar granule neurones were seeded in polylysine-coated […] plates, 3.5×10^5 cells per 48-well, in Basal medium Eagle's containing 10% fetal calf serum, 25 mM KCl, and antibiotics. At 8-9 days in vitro, granule neurone cultures were shifted to serum-free plating medium (0.4 ml) with 0.5 mM IBMX (to inhibit the breakdown of cyclic AMP) for 15 min (37° C.). Wells then received 0.1 ml of test peptide (5× final concentration). Generally 1 μM is the preferable final concentration for a putative CRF agonist under test, though different (e.g. lower) concentrations can be used as shown for the peptide agonists in FIG. 3. Incubation was continued for 15 min. Test medium was removed and the plate placed on dry ice, and stored at −140° C. Cyclic AMP analysis was performed the following day.
Cells were then lysed with the reagent provided with the BIOTRAK kit. Intracellular content of cyclic AMP in the lysates was assayed following the manufacturer's instructions. A standard curve was constructed using the cyclic AMP calibration provided, with the quantity of bound cyclic AMP being inversely proportional to the amount of second (chromogenic) antibody bound to the reaction wells. The colour product was read with an ELISA plate reader, and was a function of the amount of cyclic AMP in the unknown sample.

GSK-3β = experiment: Western blot of serine-9-phosphorylated GSK-3β (FIG. 5); format: cell-based, rat; conditions: compound alone, 2 hours; CRF 10 nM, LY 294002 75 μM, FSK 30 μM
Excerpt: It was thought that CRF receptor agonists might interact with the PI 3-kinase signalling pathway and exert their neuroprotective effect by phosphorylating and inhibiting the protein GSK-3β,which is pro-apoptotic (M. Pap and G. M. Cooper, J. Biol. Chem., 273(32), 19929-19932, 1998; and M. Hetman et al. J. Neurosci., 1st Apr. 2000, 20(7), 2567-2574; discussed hereinabove). In order to confirm this, the level of GSK-3β phosphorylated at serine-9 (e.g. see D. A. E. Cross, Nature, 378, 785-789, 1995) in control cultures of cerebellar granule neurones was measured using Western blots, and compared to the level of phospho-GSK-3β in the presence of CRF as a model CRF receptor agonist and/or in the presence of the PI 3-kinase inhibitor LY 294002. In order to determine whether elevation of cAMP was involved in any effect, the level of phospho-GSK-3β in cultures in the presence of the known cAMP-elevating agent forskolin (FSK, obtainable e.g. from Calbiochem.) with or without LY 294002 present was also measured. The forskolin acts as a benchmark for cAMP-related effects.
The method used was as follows. […]
Phosphorylation of GSK-3β was detected using an antibody to serine-9-phosphorylated GSK-3β (anti-phospho-GSK-3β (Ser9)) available as catalogue no. […]

For “H-SQEPPISLDLTFHLLREVLEMTKADQLAQQAHNNRKLLDIA-NH2 [CRF]”, the “cAMP synthesis induced by agonist (FIG. 3)” value [1] was “cAMP production increased with agonist concentration” and the “phospho-GSK-3β level compared to control CN” value (GSK-3β) was “increase in basal phospho-GSK-3β”.
